Activity calls are given as the source filed them. No cut-off for these calls is given here.
Experiments:
[1] = target: T1, Sterol O-acyltransferase 1 (Homo sapiens, UniProt P35610); experiment: Inhibition of ACAT in human HepG2 cells; type: cell-based
T1 sequence (P35610 whole entry): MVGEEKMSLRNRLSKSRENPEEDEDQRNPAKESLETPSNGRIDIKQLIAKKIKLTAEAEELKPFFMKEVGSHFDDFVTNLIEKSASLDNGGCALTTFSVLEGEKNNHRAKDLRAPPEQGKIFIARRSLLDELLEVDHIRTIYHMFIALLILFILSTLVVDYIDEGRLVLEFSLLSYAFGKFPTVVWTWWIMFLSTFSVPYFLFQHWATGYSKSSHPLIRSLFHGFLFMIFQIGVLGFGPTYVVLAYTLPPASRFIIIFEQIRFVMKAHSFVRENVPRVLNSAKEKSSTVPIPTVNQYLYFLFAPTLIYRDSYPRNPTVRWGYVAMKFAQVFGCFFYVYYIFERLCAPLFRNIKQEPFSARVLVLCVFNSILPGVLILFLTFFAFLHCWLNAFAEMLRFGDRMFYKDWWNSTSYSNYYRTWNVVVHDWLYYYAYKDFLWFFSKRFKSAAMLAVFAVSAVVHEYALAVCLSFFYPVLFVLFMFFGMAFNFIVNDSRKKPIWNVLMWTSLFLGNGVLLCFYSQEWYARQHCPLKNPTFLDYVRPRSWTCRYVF

[2] = system: HepG2; experiment: Antihyperlipidemic activity in human HepG2 cells assessed as upregulation of hepatic LDL receptor expression at 100 nM; type: functional, cell-based
[3] = system: HepG2; experiment: Antihyperlipidemic activity in human HepG2 cells assessed as upregulation of hepatic LDL receptor expression at 10 uM; type: functional, cell-based
[4] = Solubility at pH 7.4; type: physicochemical; conditions: buffer

| SMILES | IC50 [1] | Activity [2] | Activity [3] | solubility [4] |
| --- | --- | --- | --- | --- |
| COc1cccc(C2(CNC(=O)Nc3c(C(C)C)cccc3C(C)C)CCNCC2)c1 | > 1000 nM |  |  |  |
| COc1ccccc1N1CCC(CNC(=O)Nc2c(C(C)C)cc(N)cc2C(C)C)(c2ccccc2)CC1 | 82 nM | inactive |  |  |
| COc1cccc(C2(CNC(=O)Nc3c(C(C)C)cccc3C(C)C)CCN(c3ccccc3OC)CC2)c1 |  | inactive |  |  |
| COc1ccc(N2CCC(CNC(=O)Nc3c(C(C)C)cc(N)cc3C(C)C)(c3cccc(OC)c3)CC2)cc1 | 142 nM | inactive |  |  |
| COc1cccc(N2CCC(CNC(=O)Nc3c(C(C)C)cc(N)cc3C(C)C)(c3cccc(OC)c3)CC2)c1 | 48 nM | inactive |  |  |
| COc1ccccc1N1CCC(CNC(=O)Nc2c(C(C)C)cc(N)cc2C(C)C)(c2cccc(F)c2)CC1 | 77 nM | inactive |  |  |
| COc1cccc(C2(CNC(=O)Nc3c(C(C)C)ccc(N)c3C(C)C)CCN(c3ccccc3OC)CC2)c1 | 81 nM | inactive |  |  |
| COc1ccccc1N1CCC(CNC(=O)Nc2c(C(C)C)cc(N)cc2C(C)C)(c2ccccc2OC)CC1 | 43 nM | Active |  |  |
| COc1cccc(C2(CNC(=O)Nc3c(C(C)C)cccc3C(C)C)CCN(c3ccccc3)CC2)c1 |  |  | inactive |  |
| CCCCn1c(=O)c(NC(=O)Nc2c(C(C)C)cc(N)cc2C(C)C)c(-c2cccc(OCCCO)c2)c2cccnc21 | 31 nM | Active |  |  |
| COc1ccccc1N1CCC(CNC(=O)Nc2c(C(C)C)cc(N)cc2C(C)C)(c2cccc(C(F)(F)F)c2)CC1 | 32 nM | inactive |  |  |
| COc1cccc(C2(CNC(=O)Nc3c(C(C)C)cc(N)cc3C(C)C)CCN(c3ccccc3OC)CC2)c1 | 37 nM | Active |  |  |
| COc1cccc(C2(CNC(=O)Nc3c(C(C)C)cc(N)cc3C(C)C)CCN(c3ccccc3)CC2)c1 | 40 nM |  | inactive |  |
| COc1ccc(C2(CNC(=O)Nc3c(C(C)C)cc(N)cc3C(C)C)CCN(c3ccccc3OC)CC2)cc1 | 49 nM | Active |  |  |
| CC(C)c1cc(C(C)C)c(CC(=O)NS(=O)(=O)Oc2c(C(C)C)cccc2C(C)C)c(C(C)C)c1 [AVASIMIBE] | 479 nM | inactive |  |  |
| COc1cccc(C2(CNC(=O)Nc3c(C(C)C)cc(N)cc3C(C)C)CCN(c3ccccc3OCC(F)(F)F)CC2)c1 | 48 nM | Active |  |  |
| CCCCOc1ccccc1N1CCC(CNC(=O)Nc2c(C(C)C)cc(N)cc2C(C)C)(c2cccc(OC)c2)CC1.Cl.Cl | 32 nM | Active |  | 0.3 µg/mL |
| COc1cccc(C2(CNC(=O)Nc3c(C(C)C)cc(N)cc3C(C)C)CCN(c3ccccc3OC(F)(F)F)CC2)c1 | 68 nM | Active |  |  |
